# In patent publication US5378690A, “New renin-inhibitory oligopeptides, their preparation and their use” (Sankyo Company, Limited, priority 1986, dated 1995):
# Molecular target: T1, human renin (Homo sapiens, UniProt P00797)
# T1 sequence (P00797 67-406): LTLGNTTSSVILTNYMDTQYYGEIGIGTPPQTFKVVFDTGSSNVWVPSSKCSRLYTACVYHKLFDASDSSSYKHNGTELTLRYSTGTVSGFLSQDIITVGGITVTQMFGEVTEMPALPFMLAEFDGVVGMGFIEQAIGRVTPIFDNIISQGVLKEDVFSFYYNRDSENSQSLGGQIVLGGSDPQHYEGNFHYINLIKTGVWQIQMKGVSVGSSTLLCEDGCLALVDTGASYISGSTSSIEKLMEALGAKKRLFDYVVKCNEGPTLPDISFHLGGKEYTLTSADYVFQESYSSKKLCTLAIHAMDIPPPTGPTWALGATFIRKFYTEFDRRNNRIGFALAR
# Test: Inhibition of renin activity
# Assay type: biochemical
# Conditions: 1×10^-6 M of the test compound, sheep angiotensinogen, pH 7.3, 10 minutes at 37° C., mean of 3 or 4 experiments
# Protocol: The ability of various compounds of the invention to inhibit the activity of renin was determined according to the following method, which follows essentially the procedure of Kokubu et al. [Hypertension, 5, 191-197 (1983)].
# Specifically, each test compound was dissolved in 60% v/v aqueous ethanol. Human renin activity in the presence and absence of each compound was measured using sheep angiotensinogen. The total volume of 1 ml of assay mixture contained 0.1 mole/litre phosphate buffer (pH 7.3), human renin (equivalent to 0.5 ng angiotensin I per ml per minute), sheep angiotensinogen (equivalent to 200 ng angiotensin I) 1×10^-6 M of the test compound, 6% v/v ethanol and angiotensinase inhibitors (10 mmole/litre sodium ethylenediaminetetraacetate and 3.4 mmole/litre 8-hydroxyquinoline). The mixture was allowed to react for 10 minutes at 37° C., and then the reaction was stopped by placing the reaction tube in a boiling water bath for 5 minutes. The mixture was then centrifuged and the supernatant (0.05-0.1 ml) was used to assay remaining angiotensin I.
# An identical experiment was carried out, as a control, except that the test compound was omitted. From the values obtained were calculated the % inhibition of renin activity achieved by each test compound. The results are shown in the following Table 9, in which the compounds of the invention are identified by the numbers of the Examples given hereafter in which are described their preparation. The values given are the mean of 3 or 4 experiments.
row,Inhibitory Activity (%),Compound
1,91.2%,"O=C(C[C@H](O)[C@H](CC1CCCCC1)NC(=O)C(Cc1cscn1)NC(=O)[C@@H](CC(=O)N1CCOCC1)Cc1cccc2ccccc12)NCCN1CCOCC1 (mixture of isomers) [Example 2, N-{N-[(2R)-3-Morpholinocarbonyl-2-(1-naphthylmethyl)propionyl]-3-(4-thiazolyl)-DL-alanyl}-cyclostatin-(2-morpholinoethyl)amide]"
2,96.5%,"CC1CN(C(=O)C[C@@H](Cc2cccc3ccccc23)C(=O)NC(Cc2cscn2)C(=O)N[C@@H](CC2CCCCC2)[C@@H](O)CC(=O)NCCN2CCOCC2)CC(C)O1 (mixture of isomers) [Example 8, N-{N-[(2R)-2-(1-Naphthylmethyl)-3-(2,6-dimethylmorpholinocarbocyl)propionyl]-3-(4-thiazolyl)-DL-alanyl}-cyclostatin-(2-morpholinoethyl)amide]"
3,96.9%,"O=C(C[C@H](O)[C@H](CC1CCCCC1)NC(=O)C(Cc1cscn1)NC(=O)[C@@H](CC(=O)N1CCCCC1)Cc1cccc2ccccc12)NCCN1CCOCC1 (mixture of isomers) [Example 11, N-{N-[(2R)-2-(1-Naphthylmethyl)-3-(piperidinocarbonyl)propionyl]-3-(4-thiazolyl)-DL-alanyl}-cyclostatin-(2-morpholinoethyl)amide]"
4,96.3%,"O=C(C[C@H](O)[C@H](CC1CCCCC1)NC(=O)C(Cc1cscn1)NC(=O)[C@@H](CC(=O)N1CCN(c2ccccc2)CC1)Cc1cccc2ccccc12)NCCN1CCOCC1 (mixture of isomers) [Example 15, N-{N-[(2R)-2-(1-Naphthylmethyl)-3-(4-phenyl-1-piperazinylcarbonyl)propionyl]-3-(4-thiazolyl)-DL-alanyl}-cyclostatin-(2-morpholinoethyl)amide]"
5,96.7%,"O=C(C[C@H](O)[C@H](CC1CCCCC1)NC(=O)C(Cc1cscn1)NC(=O)[C@H](Cc1cccc2ccccc12)NC(=O)CCCN1CCOCC1)NCCN1CCOCC1 (mixture of isomers) [Example 42, N-55 N-[N-(4-Morpholinobutyryl)-3-(1-naphthyl -L-alanyl]-3-(4-thiazolyl)-DL-alanyl}-cyclostatin-(2-morpholinoethyl)amide]"
6,91.2%,"O=C(C[C@H](O)[C@H](CC1CCCCC1)NC(=O)C(Cc1cscn1)NC(=O)[C@H](Cc1cccc2ccccc12)NC(=O)CN1CCOCC1)NCCN1CCCC1 (mixture of isomers) [Example 43, N-{N-[N-Morpholinoacetyl-3-(1-naphthyl)-L-alanyl]-(4-thiazolyl)-DL-alanyl]-cyclostatin-2-(1-pyrrolidinylethyl)amide]"
7,98.3%,CCC(C)CNC(=O)C[C@H](O)[C@H](CC1CCCCC1)NC(=O)[C@H](Cc1cscn1)NC(=O)[C@H](Cc1cccc2ccccc12)NC(=O)CN1CCOCC1 (mixture of isomers) [Example 109]
8,92.2%,"O=C(C[C@H](O)[C@H](CC1CCCCC1)NC(=O)[C@H](Cc1ccno1)NC(=O)[C@@H](CC(=O)N1CCOCC1)Cc1cccc2ccccc12)NCCN1CCOCC1 [Example 3, N-{N-[(2R)-3-Morpholinocarbonyl-2-(1-naphthylmethyl)propionyl]-3-(5-isoxazolyl)-L-alanyl}-cyclostatin-(2-morpholinoethyl)amide]"
9,96.6%,"O=C(C[C@@H](Cc1cccc2ccccc12)C(=O)N[C@@H](Cc1cscn1)C(=O)N[C@@H](CC1CCCCC1)[C@@H](O)CC(=O)NCCN1CCOCC1)NCCc1ccccc1 [Example 13, N-{N-[(2R)-2-(1-Naphthylmethyl)-3-(phenethylcarbamoyl)propionyl]-3-(4-thiazolyl)-L-alanyl}-cyclostatin-(2-morpholinoethyl)amide]"
10,98.2%,CCC(C)[C@@H](CO)NC(=O)C[C@H](O)[C@H](CC1CCCCC1)NC(=O)[C@H](Cc1cscn1)NC(=O)[C@@H](CC(=O)N1CCOCC1)Cc1cccc2ccccc12 (some centres unmarked) [Example 31]
11,97.5%,"CCN(CC(=O)N[C@@H](Cc1cccc2ccccc12)C(=O)N[C@@H](Cc1cscn1)C(=O)N[C@@H](CC1CCCCC1)[C@@H](O)CC(=O)NCCN1CCOCC1)Cc1ccccc1 [Example 64, N-{N-[N-(N-Benzyl-N-ethylaminoacetyl)-3-(1-naphthyl)-L-alanyl]-3-(4-thiazolyl)-L-alanyl}-cyclostatin-(2-morpholinoethyl)amide]"
12,97.4%,"CC(C)N(CC(=O)N[C@@H](Cc1cccc2ccccc12)C(=O)N[C@@H](Cc1cscn1)C(=O)N[C@@H](CC1CCCCC1)[C@@H](O)CC(=O)NCCN1CCOCC1)Cc1ccccc1 [Example 65, N-{N-[N-(N-Benzyl-N-isopropylaminoacetyl)-3-(1-naphthyl)-L-alanyl]-3-(4-thiazolyl)-L-alanyl}-cyclostatin-(2-morpholinoethy)amide]"
13,95.7%,"COc1ccccc1N1CCN(CC(=O)N[C@@H](Cc2cccc3ccccc23)C(=O)N[C@@H](Cc2cscn2)C(=O)N[C@@H](CC2CCCCC2)[C@@H](O)CC(=O)NCCN2CCOCC2)CC1 [Example 66, N-[N-{N-[4-(2-Methoxyphenyl)-1-piperazinyl]acetyl-3-(1-naphthyl)-L-alanyl}-3-(4-thiazolyl)-L-alanyl]-cyclostatin-(2-morpholinoethyl)amide]"
14,97.7%,"CC(C)C[C@H](NC(=O)[C@H](Cc1cccc2ccccc12)NC(=O)CN(C)Cc1ccccc1)C(=O)N[C@@H](CC1CCCCC1)[C@@H](O)CC(=O)NCCCN1CCCC1=O [Example 73, N-{N-[N-(N-Benzyl-N-methylaminoacetyl)-3-(1-naphthyl)-L-alanyl]-L-leucyl}-cyclostatin-[3-(2-oxo-1-pyrrolidinyl)propyl]amide]"
15,98.1%,"CC[C@H](C)CNC(=O)C[C@H](O)[C@H](CC1CCCCC1)NC(=O)[C@H](Cc1cscn1)NC(=O)[C@H](Cc1cccc2ccccc12)NC(=O)CN1CCOCC1 [Example 98, N-{N-[N-Morpholinoacetyl-3-(1-naphthyl)-L-alanyl]-3-(4-thiazolyl)-L-alanyl}-cyclostatin-[(S)-2-methylbutyl]amide]"
16,96.1%,"CC[C@H](C)[C@@H](CN1CCOCC1)NC(=O)C[C@H](O)[C@H](CC1CCCCC1)NC(=O)[C@H](Cc1cscn1)NC(=O)[C@H](CC1CCCCC1)NC(=O)CN(C)Cc1ccccc1 [Example 100, N-{N-[N-(N-Benzyl-N-methylaminoacetyl)-3-cyclohexyl-L-alanyl]-3-(4-thiazolyl)-L-alanyl}-cyclostatin-[(1S,2S)-2-methyl-1-(morpholinomethyl)butyl]amide]"
17,94.9%,"CN(CC(=O)N[C@@H](CC1CCCCC1)C(=O)N[C@@H](Cc1cscn1)C(=O)N[C@@H](CC1CCCCC1)[C@@H](O)CC(=O)NCCN1CCOCC1)Cc1ccccc1 [Example 101, N-{N-[N-(N-Benzyl-N-methylaminoacetyl)-3-cyclohexyl-L-alanyl]-3-(4-thiazolyl)-L-alanyl}-cyclostatin-(2-morpholinoethyl)amide]"
18,98.6%,"CCCNC(=O)C[C@H](O)[C@H](CC1CCCCC1)NC(=O)[C@H](Cc1cscn1)NC(=O)[C@H](Cc1cccc2ccccc12)NC(=O)CN1CCOCC1 [Example 103, N-{N-[N-Morpholinoacetyl-3-(1-naphthyl)-L-alanyl]-3-(4-thiazolyl)-L-alanyl}-cyclostatin-propylamide]"
19,98.6%,"CCCCNC(=O)C[C@H](O)[C@H](CC1CCCCC1)NC(=O)[C@H](Cc1cscn1)NC(=O)[C@H](Cc1cccc2ccccc12)NC(=O)CN1CCOCC1 [Example 104, N-{N-[N-Morpholinoacetyl-3-(1-naphthyl)-L-alanyl]-3-(4-thiazolyl)-L-alanyl}-cyclostatin-butylamide]"
20,98.0%,"CC(C)CNC(=O)C[C@H](O)[C@H](CC1CCCCC1)NC(=O)[C@H](Cc1cscn1)NC(=O)[C@H](Cc1cccc2ccccc12)NC(=O)CN1CCOCC1 [Example 105, N-{N-[N-Morpholinoacetyl-3-(1-naphthyl)-L-alanyl]-3-(4-thiazolyl)-L-alanyl}-cyclostatin-isobutylamide]"
21,98.2%,CC(C)CN(CC(C)C)C(=O)C[C@H](O)[C@H](CC1CCCCC1)NC(=O)[C@H](Cc1cscn1)NC(=O)[C@H](Cc1cccc2ccccc12)NC(=O)CN1CCOCC1 [Example 106]
22,98.4%,"CCCCCNC(=O)C[C@H](O)[C@H](CC1CCCCC1)NC(=O)[C@H](Cc1cscn1)NC(=O)[C@H](Cc1cccc2ccccc12)NC(=O)CN1CCOCC1 [Example 107, N-{N-[N-Morpholinoacetyl-3-(1-naphthyl)-L-alanyl]-3-(4-thiazolyl)-L-alanyl}-cyclostatin-pentylamide]"
23,98.6%,CC(C)CCNC(=O)C[C@H](O)[C@H](CC1CCCCC1)NC(=O)[C@H](Cc1cscn1)NC(=O)[C@H](Cc1cccc2ccccc12)NC(=O)CN1CCOCC1 [Example 108]
